From patent US8541415B2 (University of Pittsburgh—of the Commonwealth System of …, priority 2008, dated 2013) come the findings set out here.

Read-outs that look alike come from different tables or passages of the source.

The melting point is the temperature of the solid-liquid transition.

The target in data set [1] is T1, Nef:Hck-YEEI complex (Homo sapiens, UniProt P08631).
Target sequence in this assay (P03407 2-210): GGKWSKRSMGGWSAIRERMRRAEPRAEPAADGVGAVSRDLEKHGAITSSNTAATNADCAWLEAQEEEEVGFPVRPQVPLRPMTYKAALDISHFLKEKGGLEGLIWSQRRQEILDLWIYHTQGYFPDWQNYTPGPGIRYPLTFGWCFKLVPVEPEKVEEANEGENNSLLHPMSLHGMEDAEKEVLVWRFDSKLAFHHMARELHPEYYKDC
Target sequence in this assay (P08631 other isoform, or with tags, fused parts or gaps): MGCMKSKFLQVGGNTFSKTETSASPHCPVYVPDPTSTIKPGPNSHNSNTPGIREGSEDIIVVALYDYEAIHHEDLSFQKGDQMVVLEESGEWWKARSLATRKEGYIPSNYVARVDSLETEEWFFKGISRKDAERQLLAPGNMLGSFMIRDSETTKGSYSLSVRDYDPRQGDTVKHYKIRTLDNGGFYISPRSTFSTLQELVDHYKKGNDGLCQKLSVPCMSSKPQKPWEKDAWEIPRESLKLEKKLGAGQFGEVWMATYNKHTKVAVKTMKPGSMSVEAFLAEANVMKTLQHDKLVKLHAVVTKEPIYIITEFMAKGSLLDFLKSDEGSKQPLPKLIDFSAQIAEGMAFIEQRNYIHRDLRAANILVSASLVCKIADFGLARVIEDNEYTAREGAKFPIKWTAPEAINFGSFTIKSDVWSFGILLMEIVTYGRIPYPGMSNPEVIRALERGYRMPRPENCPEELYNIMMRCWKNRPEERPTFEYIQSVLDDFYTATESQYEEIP
Procedure: For the liquid growth assay, yeast strain W303a was co-transformed with the required plasmids, seeded at an initial density of OD600nm=0.05 units in SD/-U-T medium, and incubated for 21 h at 30° C.
Aliquots of yeast cultures used for the spot assay were grown in SD/-U-T medium plus galactose for 18 h. […] Aliquots of each lysate (0.2 OD600nm units) were separated via SDS-PAGE, transferred to PVDF membranes, and probed for protein phosphotyrosine content with a combination of the anti-phosphotyrosine antibodies PY99 (Santa Cruz Biotechnology, Santa Cruz, Calif.) and PY20 (Transduction Laboratories, Lexington, Ky.).
Yeast strain W303a was co-transformed with Hck-YEEI (SE0 ID NO: 4) and Nef expression plasmids and grown to an OD600nm of 0.05. Cells (100 μL) were plated in duplicate wells of a 96-well plate in the presence of each compound from the Chempiv kinase-biased inhibitor library (Chempiv, Inc., San Diego, Calif.). All compounds were initially screened at 10 μM with 0.5% DMSO as carrier solvent. […] Cultures were incubated at 30° C., and the OD60nm was measured at 0 and 22 h.
For a further data set, the system named is U87MG cells. The following applies: human; for Cytotoxicity, Viable cell % control: 96 h, 30 μM. The method, then:
(§1) Lead compounds from the yeast screen were evaluated for activity in a Nef-dependent HIV replication assay. For these experiments, U87MG astroglioma cells engineered to express the HIV-1 co-receptors CD4 and CXCR4 were employed. Replication of HIV-1 NL4-3 is dependent upon an intact viral nef gene in these cells, making this system suitable to evaluate leads from the Nef-directed screen. U87MG cells were infected with HIV-1 in the presence of the top five compounds identified in the yeast screen, and HIV replication was monitored as p24 release into the culture supernatant 4 days later, as known in the art. As known in the art, “p24” refers to a constituent protein of the capsid of HIV-1.
(§2) The data of Table 1 are presented as percent p24 release relative to control in the absence of compound. […] Data are expressed as percent viable cells relative to untreated control culture.

A further data set concerns HIV-1 strain NL4-3. Briefly: microbe, parasite or virus in culture. In kind it is cell-based. To be noted: for IC50 / activity at 5 µM: Human immunodeficiency virus 1, NL43, U-87 MG; for Suppression of HIV replication / Anti-HIV activity (words, structure-activity comment on Table 1) / Inhibition of pseudotyped NL43 HIV-1 replication: U87MG cells; for Suppression of HIV replication: p24 release 4 days later, leads from yeast screen; for activity at 5 µM: 96 h, read-out: HIV p24% Control @ day 4; for Anti-HIV activity (words, structure-activity comment on Table 1): 5 μM, p24 day 4; for Inhibition of pseudotyped NL43 HIV-1 replication: FIGS. 1-3. The method, then: as §1, §2
It is understood that “strongest” and like terms in the context of inhibitors identified in a library screen refer to compounds that inhibit at the lowest concentrations. For these experiments, the U87MG astroglioma cell line was used as a model system. […] U87MG cells were infected with HIV-1 strain NL4-3 as well as an isogenic variant that fails to express Nef (ΔNef), over a wide range of viral titers and in the presence of each compound at 5 μM. Viral replication was assessed as HIV p24 antigen release into the culture supernatant 4 and/or 5 days later. Methods for the assay of p24 in culture supernatant are well known in the art and include, for example without limitation, immunochemical methods.

Data set [2] deals with T1, Nef:Hck-YEEI complex. To be noted: Z'-Lyte dose-response, FIG. 7.
Target sequence in this assay (P08631 with tags, fused parts or gaps isoform P08631-3, other chains not shown): as the sequence (P08631 other isoform, or with tags, fused parts or gaps) above
The test system of data set [3] is HIV-ΔNef mutant (NL4-3 that fails to express Nef). Nature of the data set: Replication of Nef-defective HIV in U87MG cells (p24 ELISA). To be noted: p24 ELISA day 5, FIG. 8, for Ma even at 10 μM. (ELISA stands for enzyme-linked immunosorbent assay.)
Procedure: HIV p24 release was determined by ELISA at day 5 following the addition of the DFP-analogs. […] U87MG cells were infected a viral density of 500 pg/ml. p24 as determined by ELISA.
To address whether Nef is required for the anti-retroviral effects of these compounds, HIV replication assays in U87MG cells infected with either wild-type or Nef-defective HIV were carried out.
Viral replication was monitored by measuring p24 protein levels in the culture supernatant 4 days after infection by standard ELISA-based techniques. Test compounds were added to the culture 30 min prior to infection with HIV, and DMSO was used as the carrier solvent at a final concentration of 0.1%.

For the compound `CN1CCN(C2CCC(n3cc(-c4ccc(Oc5ccccc5)cc4)c4c(N)ncnc43)CC2)CC1` (centres unmarked) [Compound A-419259], the “Tyrosine phosphorylation of yeast proteins” value at Nef:Hck-YEEI complex [1] (inhibitor-treated yeast cultures, anti-phosphotyrosine immunoblot) is reported as “decrease in tyrosine phosphorylation of yeast proteins to control levels”. In addition, the “Reversal of growth arrest compared with Nef PxxP mutation” value on Nef:Hck-YEEI complex [1] (liquid yeast cultures, 5 μM) is listed as “nearly as effective as mutation of the Nef PxxP motif”. At Nef:Hck-YEEI complex [1] (liquid yeast cultures, OD 600 nm, at both 1 μM and 5 μM vs untreated cultures), the “Reversal of growth suppression induced by Nef:Hck-YEEI” value is recorded as “significantly reversed the growth suppression”.

Compound `O=S(=O)(Nc1nc2ccccc2nc1Nc1ccc2c(c1)OCCO2)c1ccc(Cl)cc1` [Compound Ia, 4-Chloro-N-[3-(2,3-dihydro-benzo[1,4]dioxin-6-ylamino)-quinoxalin-2-yl]-benzenesulfonamide] gave a melting point of 257 to 258 °C. The “Concentration up to which not cytotoxic” value in the data set on U87MG cells is more than 50 µM. Moreover, the IC50 in the data set with HIV-1 strain NL4-3 (read-out: IC50, HIV replication, U87MG cells expressing CD4 and CXCR4, HIV-1 NL4-3, concentration-response) was approximately 130 nM. For the same compound, in the data set on HIV-1 strain NL4-3, the “Suppression of HIV replication” value is given as “significantly suppressed HIV replication”.

`O=S(=O)(Nc1nc2ccccc2nc1Nc1ccc2ccccc2c1)c1ccccc1` [Compound Q1]: the “Cytotoxicity, Viable cell % control” value in the data set with U87MG cells is 98 % control. Also, the activity at 5 µM in the data set with HIV-1 strain NL4-3 came to 4%.

As to `COc1ccc(OC)c(Nc2nc3ccccc3nc2NS(=O)(=O)c2ccc(Cl)cc2)c1` [Compound Q2], the “Cytotoxicity, Viable cell % control” value with U87MG cells is reported as 100 % control. Besides, in the data set with HIV-1 strain NL4-3, the activity at 5 µM is 10%.

Turning to `COc1ccc(Nc2nc3ccccc3nc2NS(=O)(=O)c2ccc(Cl)cc2)cc1OC` [Compound Q3], the “Cytotoxicity, Viable cell % control” value with U87MG cells is reported as 100 % control. In addition, in the data set with HIV-1 strain NL4-3, the activity at 5 µM was 13% and the “Anti-HIV activity (words, structure-activity comment on Table 1)” value was “one of the most active compounds”.

On to `O=S(=O)(Nc1nc2ccccc2nc1Nc1cccc2ccccc12)c1ccccc1` [Compound Q4], for which the “Cytotoxicity, Viable cell % control” value in the data set with U87MG cells came out at 100 % control. In the data set on HIV-1 strain NL4-3, the activity at 5 µM is 26%.

As to `COc1ccc(Nc2nc3ccccc3nc2NS(=O)(=O)c2ccc(Cl)cc2)c(OC)c1` [Compound Q5], the “Cytotoxicity, Viable cell % control” value in the data set with U87MG cells amounted to 96 % control. In the data set on HIV-1 strain NL4-3, the activity at 5 µM was determined as 26%.

As to `Nc1ccc(S(=O)(=O)Nc2nc3ccccc3nc2Nc2ccc3ccccc3c2)cc1` [Compound Q6], in the data set on U87MG cells, the “Cytotoxicity, Viable cell % control” value was 92 % control. Further, in the data set on HIV-1 strain NL4-3, the activity at 5 µM amounted to 40%.

On to `O=S(=O)(Nc1nc2ccccc2nc1Nc1ccccc1)c1ccccc1` [Compound Q7], for which, in the data set with U87MG cells, the “Cytotoxicity, Viable cell % control” value was 97 % control. Besides, the activity at 5 µM in the data set on HIV-1 strain NL4-3 stood at 42%.

Turning to `COc1ccc(Nc2nc3ccccc3nc2NS(=O)(=O)c2ccc(C)cc2)c(OC)c1` [Compound Q8], the “Cytotoxicity, Viable cell % control” value with U87MG cells amounted to 90 % control. Further, in the data set on HIV-1 strain NL4-3, the activity at 5 µM came out at 55%.

Turning to `CCOc1ccccc1Nc1nc2ccccc2nc1NS(=O)(=O)c1ccc(C)cc1` [Compound Q9], the “Cytotoxicity, Viable cell % control” value in the data set on U87MG cells is 100 % control. Besides, the activity at 5 µM in the data set on HIV-1 strain NL4-3 came to 60%.

Take `COc1ccc2nc(NS(=O)(=O)c3ccccc3)c(Nc3cc(OC)c(OC)c(OC)c3)nc2c1` [Compound Q10]: the “Cytotoxicity, Viable cell % control” value with U87MG cells is listed as 95 % control. The activity at 5 µM with HIV-1 strain NL4-3 amounted to 62%.

Turning to `O=S(=O)(Nc1nc2ccccc2nc1Nc1ccc(O)cc1)c1ccccc1` [Compound Q11], in the data set on U87MG cells, the “Cytotoxicity, Viable cell % control” value worked out at 88 % control. Also, in the data set with HIV-1 strain NL4-3, the activity at 5 µM is 68%.

As to `COc1ccc(Nc2nc3ccccc3nc2NS(=O)(=O)c2ccc(C)cc2)cc1OC` [Compound Q13], the “Cytotoxicity, Viable cell % control” value with U87MG cells was found to be 91 % control. Moreover, the activity at 5 µM in the data set on HIV-1 strain NL4-3 came to 82%.

Turning to `COc1ccccc1Nc1nc2ccccc2nc1NS(=O)(=O)c1ccccc1` [Compound Q14], the “Cytotoxicity, Viable cell % control” value with U87MG cells stood at 93 % control. For the same compound, in the data set with HIV-1 strain NL4-3, the activity at 5 µM was 87%.

With `Cc1ccc(S(=O)(=O)Nc2nc3ccccc3nc2Nc2ccc3c(c2)OCCO3)cc1` [Compound Q15], in the data set on U87MG cells, the “Cytotoxicity, Viable cell % control” value came out at 96 % control. In addition, in the data set on HIV-1 strain NL4-3, the activity at 5 µM was determined as 88%.

As to `CCOc1ccc(S(=O)(=O)Nc2nc3ccccc3nc2Nc2ccccc2)cc1` [Compound Q16], the “Cytotoxicity, Viable cell % control” value with U87MG cells worked out at 100 % control. In the data set on HIV-1 strain NL4-3, the activity at 5 µM came out at 91%.

Turning to `COc1ccc(Nc2nc3ccccc3nc2NS(=O)(=O)c2ccccc2)cc1OC` [Compound Q17], in the data set on U87MG cells, the “Cytotoxicity, Viable cell % control” value worked out at 97 % control. In the data set with HIV-1 strain NL4-3, the activity at 5 µM amounted to 100% and the “Anti-HIV activity (words, structure-activity comment on Table 1)” value was “one of the least active”.

Turning to `CCOc1ccc(S(=O)(=O)Nc2nc3ccccc3nc2Nc2ccc(OC)cc2)cc1` [Compound Q18], the “Cytotoxicity, Viable cell % control” value in the data set with U87MG cells is 99 % control. In addition, in the data set with HIV-1 strain NL4-3, the activity at 5 µM was 112%.

With `O=S(=O)(Nc1nc2ccccc2nc1Nc1cccc(O)c1)c1ccccc1` [Compound Q19], in the data set on U87MG cells, the “Cytotoxicity, Viable cell % control” value was determined as 92 % control. Further, the activity at 5 µM in the data set on HIV-1 strain NL4-3 was 114%.

As to `COc1ccc(Nc2nc3ccccc3nc2NS(=O)(=O)c2ccccc2)cc1` [Compound Q20], the “Cytotoxicity, Viable cell % control” value in the data set with U87MG cells turned out to be 89 % control. Moreover, in the data set with HIV-1 strain NL4-3, the activity at 5 µM is 119%.

Compound `O=S(=O)(Nc1nc2ccccc2nc1Nc1ccc2ccccc2c1)c1ccc(Cl)cc1` [Compound Q21, 4-Chloro-N-[3-(naphthalen-2-ylamino)-quinoxalin-2-yl]-benzenesulfonamide] showed a melting point of 222 to 224 °C. The “Inhibition of pseudotyped NL43 HIV-1 replication” value with HIV-1 strain NL4-3 is “potent inhibitors of viral infection”.

For `O=S(=O)(Nc1nc2ccccc2nc1Nc1cccc2ccccc12)c1ccc(Cl)cc1` [Compound Q22, 4-Chloro-N-[3-(naphthalen-1-ylamino)-quinoxalin-2-yl]-benzenesulfonamide], the melting point lay in the range of 262 to 265 °C. In the data set with HIV-1 strain NL4-3 (U87MG cells infected with wild-type or Nef-deficient virus, FIG. 3), the “Selectivity wild-type vs Nef-deficient NL43 HIV-1” value was “selective and more potent at inhibiting the replication of wild-type virus”. Moreover, in the data set on HIV-1 strain NL4-3, the “Inhibition of pseudotyped NL43 HIV-1 replication” value is “potent inhibitors of viral infection”.

For `OCCNc1ncnc2oc(-c3ccccc3)c(-c3ccccc3)c12` [IIIL], in the data set on U87MG cells, the “Cytotoxicity, Viable cell % control” value came out at 94 % control. For the same compound, the activity at 5 µM with HIV-1 strain NL4-3 came out at 93%.

Regarding `c1ccc(-c2oc3ncnc(NCc4ccco4)c3c2-c2ccccc2)cc1` [IIIb], in the data set with U87MG cells, the “Cytotoxicity, Viable cell % control” value was found to be 109 % control. Also, in the data set on HIV-1 strain NL4-3, the activity at 5 µM stood at 8%.

Regarding `Nc1ncnc2oc(-c3ccco3)c(-c3ccco3)c12` [IIIc], the activity at 5 µM in the data set on HIV-1 strain NL4-3 was found to be 20%.

As for `Cc1ccc(-c2oc3ncnc(N)c3c2-c2ccc(C)cc2)cc1` [IIId], in the data set with U87MG cells, the “Cytotoxicity, Viable cell % control” value is 90 % control. The activity at 5 µM with HIV-1 strain NL4-3 worked out at 29%.

For `c1ccc(-c2oc3ncnc(NCCN4CCOCC4)c3c2-c2ccccc2)cc1` [IIIe], the “Cytotoxicity, Viable cell % control” value with U87MG cells was found to be 89 % control. Moreover, the activity at 5 µM in the data set with HIV-1 strain NL4-3 came to 39%.

Regarding `c1ccc(-c2oc3ncnc(NCCCN4CCOCC4)c3c2-c2ccccc2)cc1` [IIIf], the “Cytotoxicity, Viable cell % control” value in the data set on U87MG cells was 99 % control. Further, in the data set with HIV-1 strain NL4-3, the activity at 5 µM came out at 47%.

On to `O=C(O)CNc1ncnc2oc(-c3ccccc3)c(-c3ccccc3)c12` [IIIg], for which the “Cytotoxicity, Viable cell % control” value in the data set with U87MG cells was 100 % control. Further, the activity at 5 µM in the data set on HIV-1 strain NL4-3 was 58%.

`O=C(Nc1ncnc2oc(-c3ccccc3)c(-c3ccccc3)c12)c1ccco1` [IIIh]: the “Cytotoxicity, Viable cell % control” value in the data set on U87MG cells is given as 89 % control. Also, in the data set on HIV-1 strain NL4-3, the activity at 5 µM worked out at 59%.

For the compound `COc1ccc(-c2oc3ncnc(N)c3c2-c2ccccc2)cc1` [IIIj], the “Cytotoxicity, Viable cell % control” value in the data set with U87MG cells is listed as 97 % control. Also, the activity at 5 µM in the data set with HIV-1 strain NL4-3 was 73%.

In the case of `c1ccc(-c2oc3ncnc(NCCCc4ccco4)c3c2-c2ccccc2)cc1` [IIIq, N-(3-(furan-2-yl)propyl) 5,6-diphenylfuro[2,3-d]pyrimidin-4-amine], at Nef:Hck-YEEI complex [2], the “Inhibition of Nef:Hck complex” value is “enhanced both potency and efficacy for the Nef:Hck complex vs. Hck alone”. In addition, the “Effect on replication of HIV-ΔNef mutant” value in data set [3] is recorded as “Neither IIIm nor IIIq shows inhibition”. Further, the IC50 in the data set on HIV-1 strain NL4-3 (120 h, read-out: IC50, wild-type HIV replication, U87MG cells, wild-type NL4-3, p24 ELISA day 5, FIG. 8) was not above 1000 nM.

As to `Cc1nc2sc(-c3nc4ccccc4[nH]3)c(N)c2c(C)c1Cl` [IIa], in the data set with U87MG cells, the “Concentration up to which not cytotoxic” value is more than 50 µM. The “Suppression of HIV replication” value with HIV-1 strain NL4-3 is reported as “significantly suppressed HIV replication”.
